US11084818B2 (HEPO PHARMACEUTICAL CO., LTD., priority 2016, dated 2021)

How the values were obtained:
hTLR8 = target: T1, hTLR8 (Homo sapiens, UniProt Q9NR97); assay: Activation activity test of hTLR8 (HEK-Blue hTLR8 cells, QUANTI-Blue OD650); assay type: cell-based; settings: HEK-Blue hTLR8 cells, 24 hours incubation; read-out: TLR8 (EC50)
T1 construct: host or cells: HEK-Blue hTLR8 (HEK293-derived reporter line)
T1 sequence (Q9NR97 27-1041): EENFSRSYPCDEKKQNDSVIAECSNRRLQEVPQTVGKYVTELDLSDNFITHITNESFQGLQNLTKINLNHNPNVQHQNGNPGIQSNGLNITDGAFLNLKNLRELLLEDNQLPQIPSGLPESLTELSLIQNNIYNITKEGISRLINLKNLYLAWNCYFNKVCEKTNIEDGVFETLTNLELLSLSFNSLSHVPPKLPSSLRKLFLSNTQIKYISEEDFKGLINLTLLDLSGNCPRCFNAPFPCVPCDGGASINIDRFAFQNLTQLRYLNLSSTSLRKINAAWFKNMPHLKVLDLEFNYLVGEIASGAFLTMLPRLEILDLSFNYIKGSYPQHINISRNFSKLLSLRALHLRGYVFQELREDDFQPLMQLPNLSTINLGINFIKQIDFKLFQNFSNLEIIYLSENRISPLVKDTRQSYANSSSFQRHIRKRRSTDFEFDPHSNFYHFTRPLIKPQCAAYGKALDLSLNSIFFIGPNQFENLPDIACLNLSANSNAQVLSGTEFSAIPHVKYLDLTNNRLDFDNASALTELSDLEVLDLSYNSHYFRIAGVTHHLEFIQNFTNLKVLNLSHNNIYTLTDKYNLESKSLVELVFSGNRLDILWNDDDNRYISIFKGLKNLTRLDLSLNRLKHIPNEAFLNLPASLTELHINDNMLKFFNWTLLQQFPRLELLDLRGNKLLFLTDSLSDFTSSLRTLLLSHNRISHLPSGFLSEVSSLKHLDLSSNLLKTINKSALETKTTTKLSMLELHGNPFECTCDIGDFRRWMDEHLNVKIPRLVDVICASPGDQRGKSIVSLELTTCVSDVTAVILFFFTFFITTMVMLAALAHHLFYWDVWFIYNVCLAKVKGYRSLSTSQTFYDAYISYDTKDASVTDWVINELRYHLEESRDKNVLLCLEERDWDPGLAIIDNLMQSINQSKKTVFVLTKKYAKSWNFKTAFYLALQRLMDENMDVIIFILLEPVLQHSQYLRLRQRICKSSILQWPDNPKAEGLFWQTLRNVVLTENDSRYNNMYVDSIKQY
Procedure: (§1) Effect Example 1: Activation Activity Test of hTLR7 and hTLR8
(§2) Cell lines: HEK-Blue™ hTLR7 and HEK-Blue™ hTLR8 (InvivoGen Co.)
(§3) Primary reagents: QUANTI-Blue™ (InvivoGen) and ATPlite 1 Step (PerkinElmer)
(§4) Primary instruments: Automatic Liquid Handling Workstation (Labcyte, Model: Echo), Cell Counter (Countstar, IC1000) and Multifunctional Enzyme Marker (Molecular Device, Flexstation III).
(§5) 2.1 The tested compounds were formulated into a 60 mM concentrated stock solution in DMSO and stored in a nitrogen cabinet.
(§6) 2.3 The T150 cultured cells were taken out from the CO2 incubator and the cell culture supernatant was discarded. The cells were washed with PBS once, followed by addition of about 10 mL of the culture solution. The cells were dissociated by patting the cell culture flask, and gently blown to even by a pipette.
(§7) The cells were counted, and the cell suspension was adjusted to 200,000 cells/mL by the culture solution. Thereafter, 200 μL of diluted cells was added to each well in a 96-well plate containing the compound (40,000 cells/well).
(§8) 2.4 The compounds and cells were incubated in a 5% CO2 incubator at 37° C. for 24 hours.
(§9) 2.5 Compound activity assay: 20 μl of the cell supernatant of each well after induction was added to a cell culture plate containing 180 μL of reagent QUANTI-Blue™, and incubated at 37° C. for 1.5 hours. Thereafter, the optical density absorption (OD650) of each well at 650 nm was measured using a Multifunctional Enzyme Marker: Flexstation III.
(§10) 2.6 Compound Activity: OD650 values were analyzed using GraphPad Prism software and the dose-response curves for the compound were fitted to calculate the EC50 values of the compound.

hTLR7 = target: T2, hTLR7 (Homo sapiens, UniProt Q9NYK1); assay: Activation activity test of hTLR7 (HEK-Blue hTLR7 cells, QUANTI-Blue OD650); assay type: cell-based; settings: 24 hours incubation, read-out: TLR7 (EC50)
T2 construct: host or cells: HEK-Blue hTLR7 (HEK293-derived reporter line)
T2 sequence (Q9NYK1 27-1049): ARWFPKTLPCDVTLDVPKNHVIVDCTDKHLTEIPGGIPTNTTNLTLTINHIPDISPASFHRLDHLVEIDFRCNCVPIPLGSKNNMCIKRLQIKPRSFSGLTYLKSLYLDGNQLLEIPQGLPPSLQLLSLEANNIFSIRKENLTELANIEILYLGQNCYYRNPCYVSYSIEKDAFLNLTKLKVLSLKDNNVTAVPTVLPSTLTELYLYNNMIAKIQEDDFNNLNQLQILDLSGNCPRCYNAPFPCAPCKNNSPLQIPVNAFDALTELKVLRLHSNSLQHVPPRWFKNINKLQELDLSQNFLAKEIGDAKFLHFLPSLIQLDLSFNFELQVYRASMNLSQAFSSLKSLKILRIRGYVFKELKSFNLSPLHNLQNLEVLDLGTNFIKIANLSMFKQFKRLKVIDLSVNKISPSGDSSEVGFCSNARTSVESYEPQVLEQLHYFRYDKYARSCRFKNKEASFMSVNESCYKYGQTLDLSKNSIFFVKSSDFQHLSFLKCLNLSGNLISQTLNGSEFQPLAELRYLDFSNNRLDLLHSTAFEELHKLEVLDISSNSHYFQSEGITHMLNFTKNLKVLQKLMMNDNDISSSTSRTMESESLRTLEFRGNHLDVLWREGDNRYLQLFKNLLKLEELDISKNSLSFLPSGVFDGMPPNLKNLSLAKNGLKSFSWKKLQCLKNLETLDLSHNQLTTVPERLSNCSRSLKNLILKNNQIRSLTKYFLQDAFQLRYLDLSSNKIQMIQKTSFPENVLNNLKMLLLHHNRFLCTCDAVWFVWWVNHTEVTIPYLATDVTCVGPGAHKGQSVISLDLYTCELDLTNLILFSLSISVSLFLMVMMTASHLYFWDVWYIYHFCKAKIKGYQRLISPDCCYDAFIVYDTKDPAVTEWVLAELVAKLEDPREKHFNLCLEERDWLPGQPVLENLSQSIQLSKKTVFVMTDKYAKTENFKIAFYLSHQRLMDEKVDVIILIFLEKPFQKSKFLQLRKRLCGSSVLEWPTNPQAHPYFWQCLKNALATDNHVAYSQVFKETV
Procedure: as §1, §2, §3, §4, §5, §6, §7, §8, §9, §10

Compound	EC50 (hTLR8)	EC50 (hTLR7)
O=c1[nH]c2cnc(OCC3CCCO3)nc2n1Cc1ccc(CN2CCCC2)cc1 (stereo not drawn) [Example 46, 9-(4-(pyrrolidin-1-ylmethyl)benzyl)-2-((tetrahydrofuran-2-yl)methoxy)-7,9-dihydro-8H-purin-8-one]	> 100 µM	1 to 10 µM
COCCOc1ncc2[nH]c(=O)n(Cc3ccc(CN4CCC[C@H]4C(=O)OC)cc3)c2n1 [Example 8, methyl (4-((2-(2-methoxyethoxy)-8-oxo-7,8-dihydro-9H-purin-9-yl)methyl)benzyl)-L-pyrrolidine-2-carboxylate]	> 100 µM	10 to 100 µM
COC(C)CCOc1ncc2[nH]c(=O)n(Cc3ccc(CN4CCCC4)cc3)c2n1 (stereo not drawn) [Example 49, 9-(4-(pyrrolidin-1-ylmethyl)benzyl)-2-(3-methoxybutoxy)-7,9-dihydro-8H-purin-8-one]	> 100 µM	0.001 to 1 µM
COCCOc1ncc2[nH]c(=O)n(Cc3ccc(CN4CC5CC(C5)C4)cc3)c2n1 [Example 52, 9-(4-((3-azabicyclo[3.1.1]heptan-3-yl)methyl)benzyl)-2-(2-methoxyethoxy)-7,9-dihydro-8H-purin-8-one]	> 100 µM	1 to 10 µM
CCCCNc1ncc2[nH]c(=O)n(Cc3cccc(CN4CCCC4)c3)c2n1 [Example 31, 2-(butylamino)-9-(3-(pyrrolidin-1-ylmethyl)benzyl)-7,9-dihydro-8H-purin-8-one]	> 100 µM	> 100 µM
COCCOc1ncc2[nH]c(=O)n(Cc3ccc(CN4C[C@H]5CN(C)C[C@H]5C4)cc3)c2n1 [Example 12]	> 100 µM	1 to 10 µM
COCCOc1ncc2[nH]c(=O)n(Cc3ccc(CN(C)C)cc3)c2n1 [Example 9, 9-(4-((dimethylamino)methyl)benzyl)-2-(2-methoxyethoxy)-7,9-dihydro-8H-purin-8-one]	> 100 µM	1 to 10 µM
COCCOc1ncc2[nH]c(=O)n(Cc3ccc([C@H](C)N4CCCC4)cc3)c2n1 [Example 41, (S)-2-(2-methoxyethoxy)-9-(4-(1-(pyrrolidin-1-yl)ethyl)benzyl)-7,9-dihydro-8H-purin-8-one]	> 100 µM	0.001 to 1 µM
COCCOc1ncc2[nH]c(=O)n(Cc3ccc(C(C)N4CCCCCC4)cc3)c2n1 (stereo not drawn) [Example 16, 2-(2-methoxyethoxy)-9-(4-(1-(azacycloheptane-1-yl)ethyl)benzyl)-7,9-dihydro-8H-purin-8-one]	> 100 µM	0.001 to 1 µM
COCCOc1ncc2[nH]c(=O)n(Cc3ccc(C(C)N4CCCCC4)cc3)c2n1 (stereo not drawn) [Example 15, 2-(2-methoxyethoxy)-9-(4-(1-(piperidin-1-yl)ethyl)benzyl)-7,9-dihydro-8H-purin-8-one]	> 100 µM	0.001 to 1 µM
CCCCOc1ncc2[nH]c(=O)n(Cc3ccc(CN4CCCC4)cc3)c2n1 [Example 66, 9-(4-(pyrrolidin-1-ylmethyl)benzyl)-2-butoxy-7,9-dihydro-8H-purin-8-one]	> 100 µM	> 100 µM

Second part, the compound after the results:

EC50 (hTLR8)	EC50 (hTLR7)	Compound
> 100 µM	> 100 µM	COCCOc1nc(C)c2[nH]c(=O)n(Cc3ccc(CN4CCCC4)cc3)c2n1 [Example 58, 9-(4-(pyrrolidin-1-ylmethyl)benzyl)-6-methyl-2-(2-methoxyethoxy)-7,9-dihydro-8H-purin-8-one]
> 100 µM	1 to 10 µM	COCCOc1ncc2[nH]c(=O)n(Cc3ccc(CCN4CCCC4)cc3)c2n1 [Example 68, 9-(4-(2-(pyrrolidin-1-yl)ethyl)benzyl)-2-(2-methoxyethoxy)-7,9-dihydro-8H-purin-8-one]
> 100 µM	> 100 µM	COCCOc1ncc2[nH]c(=S)n(Cc3ccc(CN4CCCC4)cc3)c2n1 [Example 60, 2-(2-methoxyethoxy)-9-(4-(pyrrolidin-1-ylmethyl)benzyl)-7,9-dihydro-8H-purin-8-thione]
> 100 µM	> 100 µM	COCCOc1ncc2nc(C)n(Cc3ccc(CN4CCCC4)cc3)c2n1 [Example 59, 2-(2-methoxyethoxy)-8-methyl-9-(4-(pyrrolidin-1-ylmethyl)benzyl)-9H-purine]
> 100 µM	1 to 10 µM	COCCOc1ncc2[nH]c(=O)n(Cc3ccc(CN4CCCC4)cc3F)c2n1 [Example 63, 2-(2-methoxyethoxy)-9-(2-fluoro-4-(pyrrolidin-1-ylmethyl)benzyl)-7,9-dihydro-8H-purin-8-one]
> 100 µM	1 to 10 µM	COCCOc1ncc2[nH]c(=O)n(Cc3ccc(CN4CCCCCC4)cc3)c2n1 [Example 4, 2-(2-methoxyethoxy)-9-(4-(azepan-1-ylmethyl)benzyl)-7,9-dihydro-8H-purin-8-one]
> 100 µM	10 to 100 µM	COCCOc1ncc2[nH]c(=O)n(Cc3cccc(CN4CCCCCC4)c3)c2n1 [Example 21, 2-(2-methoxyethoxy)-9-(3-(azepan-1-ylmethyl)benzyl)-7,9-dihydro-8H-purin-8-one]
> 100 µM	1 to 10 µM	CC(C)OCCOc1ncc2[nH]c(=O)n(Cc3ccc(CN4CCCC4)cc3)c2n1 [Example 64, 9-(4-(pyrrolidin-1-ylmethyl)benzyl)-2-(2-isopropoxyethoxy)-7,9-dihydro-8H-purin-8-one]
> 100 µM	10 to 100 µM	COCCOc1nc(O)c2[nH]c(=O)n(Cc3ccc(CN4CCCC4)cc3)c2n1 [Example 69, 6-hydroxy-2-(2-methoxyethoxy)-9-(4-(pyrrolidin-1-ylmethyl)benzyl)-7,9-dihydro-8H-purin-8-one]
> 100 µM	1 to 10 µM	CCOCCOc1ncc2[nH]c(=O)n(Cc3ccc(CN4CCCC4)cc3)c2n1 [Example 37, 2-(2-ethoxyethoxy)-9-(4-(pyrrolidin-1-ylmethyl)benzyl)-7,9-dihydro-8H-purin-8-one]
